The source of these data is US20260258035A1, “FIVE-MEMBERED AND SIX-MEMBERED NITROGEN-CONTAINING COMPOUND, AND INTERMEDIATE, PREPARATION METHOD AND USE THEREOF” (HANGZHOU SYNRX THERAPEUTICS BIOMEDICAL TECHNOLOGY CO., LTD., priority 2022, published 2026).

One experiment has as its target PARG (Homo sapiens, UniProt Q86W56). Briefly: Biochemical assay (PARG, TFMU-ADPr substrate). Particulars: PARG, TFMU-ADPr substrate.
The subject of the next experiment is HCC1806. In words: Cell viability assay (CellTiter-Glo). The class given is cell-based, Human. To be noted: Homo sapiens, HCC1806, 168 h, HCC1806, 7 days, CellTiter-Glo; read-out: IC50 (nM) in cell viability assay.

Structures are written as SMILES.

PARG, sequence (Q86W56 whole entry): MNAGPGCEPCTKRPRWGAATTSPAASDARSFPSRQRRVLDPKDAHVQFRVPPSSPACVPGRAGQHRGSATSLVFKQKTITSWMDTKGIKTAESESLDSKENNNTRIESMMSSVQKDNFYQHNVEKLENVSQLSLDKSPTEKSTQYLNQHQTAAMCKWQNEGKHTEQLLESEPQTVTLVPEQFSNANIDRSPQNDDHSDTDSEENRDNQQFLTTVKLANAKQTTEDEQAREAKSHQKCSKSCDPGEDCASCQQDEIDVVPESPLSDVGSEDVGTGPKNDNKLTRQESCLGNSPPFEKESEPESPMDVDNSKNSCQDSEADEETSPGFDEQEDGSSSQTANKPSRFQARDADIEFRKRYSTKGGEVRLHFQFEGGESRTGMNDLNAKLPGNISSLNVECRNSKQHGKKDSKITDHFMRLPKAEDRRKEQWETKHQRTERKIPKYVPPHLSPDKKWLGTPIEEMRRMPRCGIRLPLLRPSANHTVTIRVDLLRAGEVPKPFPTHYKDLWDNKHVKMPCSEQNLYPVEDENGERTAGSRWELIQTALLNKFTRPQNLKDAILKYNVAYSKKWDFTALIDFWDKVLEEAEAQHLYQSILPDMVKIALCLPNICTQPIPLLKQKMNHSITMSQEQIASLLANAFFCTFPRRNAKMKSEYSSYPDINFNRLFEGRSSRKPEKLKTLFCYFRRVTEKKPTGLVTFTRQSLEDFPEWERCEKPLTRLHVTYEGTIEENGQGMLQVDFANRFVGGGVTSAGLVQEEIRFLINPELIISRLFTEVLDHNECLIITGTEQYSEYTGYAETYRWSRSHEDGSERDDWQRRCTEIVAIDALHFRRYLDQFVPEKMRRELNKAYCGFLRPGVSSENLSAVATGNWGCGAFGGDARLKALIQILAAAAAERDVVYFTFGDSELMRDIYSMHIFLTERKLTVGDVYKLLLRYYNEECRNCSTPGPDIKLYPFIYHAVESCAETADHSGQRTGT

Usually IC50 stands for the concentration needed to halve the response being measured. In the case of `CN(C)C1(C(=O)N2CCN(c3cc(S(=O)(=O)NC4(C#N)CC4)cn4c(-c5nnc(C(F)(F)F)s5)ncc34)CC2)CC1` [Example 266, N-(1-cyanocyclopropyl)-8-(4-(1-(dimethylamino)cyclopropane-1-carbonyl)piperazin-1-yl)-3-(5-(trifluoromethyl)-1,3,4-thiadiazol-2-yl)imidazo[1,5-a]pyridine-6-sulfonamide], the 50% inhibitory concentration (IC50) on PARG worked out at 132 nM; with HCC1806, 370 nM.
On to `CC(C)C(=O)NC1CCN(c2cc(S(=O)(=O)NC3(C#N)CC3)cn3c(-c4nnc(C(F)(F)F)s4)ncc23)CC1` [Example 268, N-(1-(6-(N-(1-cyanocyclopropyl)sulfamoyl)-3-(5-(trifluoromethyl)-1,3,4-thiadiazol-2-yl)imidazo[1,5-a]pyridin-8-yl)piperidin-4-yl)isobutyramide], for which the results for the concentration for half-maximal inhibition (IC50) against PARG and with HCC1806 were 100 nM and 2210 nM, respectively.
As for `N#CC1(NS(=O)(=O)c2cc(N3CCN(C(=O)[C@@H]4CCN4)CC3)c3cnc(-c4nnc(C(F)(F)F)s4)n3c2)CC1` [Example 269, (S)-8-(4-(azetidine-2-carbonyl)piperazin-1-yl)-N-(1-cyanocyclopropyl)-3-(5-(trifluoromethyl)-1,3,4-thiadiazol-2-yl)imidazo[1,5-a]pyridine-6-sulfonamide], the half-maximal inhibitory concentration (IC50) was determined as 79.4 nM against PARG and 20000 nM in the experiment on HCC1806.
The matching figures for `N#CC1(NS(=O)(=O)c2cc(N3CCN(C(=O)[C@@H]4CCCN4)CC3)c3cnc(-c4nnc(C(F)(F)F)s4)n3c2)CC1` [Example 270, (S)-N-(1-cyanocyclopropyl)-8-(4-prolylpiperazin-1-yl)-3-(5-(trifluoromethyl)-1,3,4-thiadiazol-2-yl)imidazo[1,5-a]pyridine-6-sulfonamide]: 91.2 nM and 35900 nM.
In the same order, the values of `N#CC1(NS(=O)(=O)c2cc(N3CCN(C(=O)[C@@H]4CCNC4)CC3)c3cnc(-c4nnc(C(F)(F)F)s4)n3c2)CC1` [Example 271, (R)-N-(1-cyanocyclopropyl)-8-(4-(pyrrolidine-3-carbonyl)piperazin-1-yl)-3-(5-(trifluoromethyl)-1,3,4-thiadiazol-2-yl)imidazo[1,5-a]pyridine-6-sulfonamide] are 11.5 nM and 36200 nM.
In the same order, the values of `N#CC1(NS(=O)(=O)c2cc(N3CCN(C(=O)[C@H]4CCNC4)CC3)c3cnc(-c4nnc(C(F)(F)F)s4)n3c2)CC1` [Example 272, (S)-N-(1-cyanocyclopropyl)-8-(4-(pyrrolidine-3-carbonyl)piperazin-1-yl)-3-(5-(trifluoromethyl)-1,3,4-thiadiazol-2-yl)imidazo[1,5-a]pyridine-6-sulfonamide] are 7.24 nM and 5410 nM.
As for `N#CC1(NS(=O)(=O)c2cc(N3CCN(C(=O)C4CC(N)C4)CC3)c3cnc(-c4nnc(C(F)(F)F)s4)n3c2)CC1` (centres unmarked) [Example 273, 8-(4-(3-aminocyclobutane-1-carbonyl)piperazin-1-yl)-N-(1-cyanocyclopropyl)-3-(5-(trifluoromethyl)-1,3,4-thiadiazol-2-yl)imidazo[1,5-a]pyridine-6-sulfonamide], the IC50 against PARG came out at 1.91 nM; in the experiment on HCC1806, 5940 nM.
In the same order, the values of `N#CC1(NS(=O)(=O)c2cc(N3CCN(C(=O)C4(N)CC4)CC3)c3cnc(-c4nnc(C(F)(F)F)s4)n3c2)CC1` [Example 274, 8-(4-(1-aminocyclopropane-1-carbonyl)piperazin-1-yl)-N-(1-cyanocyclopropyl)-3-(5-(trifluoromethyl)-1,3,4-thiadiazol-2-yl)imidazo[1,5-a]pyridine-6-sulfonamide] are 41.7 nM and 700 nM.
The matching figures for `CNC1(C(=O)N2CCN(c3cc(S(=O)(=O)NC4(C#N)CC4)cn4c(-c5nnc(C(F)(F)F)s5)ncc34)CC2)CC1` [Example 275, N-(1-cyanocyclopropyl)-8-(4-(1-(methylamino)cyclopropane-1-carbonyl)piperazin-1-yl)-3-(5-(trifluoromethyl)-1,3,4-thiadiazol-2-yl)imidazo[1,5-a]pyridine-6-sulfonamide]: 22.9 nM and 472 nM.
Consider `N#CC1(NS(=O)(=O)c2cc(N3CCN(C(=O)CO)CC3)c3cnc(-c4nnc(C(F)(F)F)s4)n3c2)CC1` [Example 276, N-(1-cyanocyclopropyl)-8-(4-(2-hydroxyacetyl)piperazin-1-yl)-3-(5-(trifluoromethyl)-1,3,4-thiadiazol-2-yl)imidazo[1,5-a]pyridine-6-sulfonamide], for which the concentration for half-maximal inhibition (IC50) against PARG was determined as 45.7 nM; with HCC1806 it was 1750 nM.
In the same order, the values of `CC1(NS(=O)(=O)c2cc(N3CCN(C(=O)C4CNC4)CC3)c3cnc(-c4nnc(C(F)(F)F)s4)n3c2)CC1` [Example 277, 8-(4-(azetidine-3-carbonyl)piperazin-1-yl)-N-(1-methylcyclopropyl)-3-(5-(trifluoromethyl)-1,3,4-thiadiazol-2-yl)imidazo[1,5-a]pyridine-6-sulfonamide] are 25.1 nM and 4470 nM.
The matching figures for `N#CC1(NS(=O)(=O)c2cc(N3CCN(C(=O)C4(F)CNC4)CC3)c3cnc(-c4nnc(C(F)(F)F)s4)n3c2)CC1` [Example 278, N-(1-cyanocyclopropyl)-8-(4-(3-fluoroazetidine-3-carbonyl)piperazin-1-yl)-3-(5-(trifluoromethyl)-1,3,4-thiadiazol-2-yl)imidazo[1,5-a]pyridine-6-sulfonamide]: 40.7 nM and 1980 nM.
The matching figures for `N#CC1(NS(=O)(=O)c2cc(N3CCN(C(=O)[C@@H]4C[C@@H](O)CN4)CC3)c3cnc(-c4nnc(C(F)(F)F)s4)n3c2)CC1` [Example 279, N-(1-cyanocyclopropyl)-8-(4-((2S,4R)-4-hydroxypyrrolidine-2-carbonyl)piperazin-1-yl)-3-(5-(trifluoromethyl)-1,3,4-thiadiazol-2-yl)imidazo[1,5-a]pyridine-6-sulfonamide]: 95.5 nM and 29900 nM.
As to `N#CC1(NS(=O)(=O)c2cc(N3CCN(C(=O)C4NCCS4)CC3)c3cnc(-c4nnc(C(F)(F)F)s4)n3c2)CC1` (centres unmarked) [Example 281, N-(1-cyanocyclopropyl)-8-(4-(thiazolidine-2-carbonyl)piperazin-1-yl)-3-(5-(trifluoromethyl)-1,3,4-thiadiazol-2-yl)imidazo[1,5-a]pyridine-6-sulfonamide], the half-maximal inhibitory concentration (IC50) against PARG was 66.1 nM; in the experiment on HCC1806, 229 nM.
The matching figures for `CC1(NS(=O)(=O)c2cc(N3CCN(C(=O)C(O)C(F)(F)F)CC3)c3cnc(-c4nnc(C(F)(F)F)s4)n3c2)CC1` (centres unmarked) [Example 282, N-(1-methylcyclopropyl)-8-(4-(3,3,3-trifluoro-2-hydroxypropanoyl)piperazin-1-yl)-3-(5-(trifluoromethyl)-1,3,4-thiadiazol-2-yl)imidazo[1,5-a]pyridine-6-sulfonamide]: 20 nM and 84.3 nM.
The matching figures for `N#CC1(NS(=O)(=O)c2cc(N3CCN(C(=O)C4CC(O)C4)CC3)c3cnc(-c4nnc(C(F)(F)F)s4)n3c2)CC1` (centres unmarked) [Example 283, N-(1-cyanocyclopropyl)-8-(4-(3-hydroxycyclobutane-1-carbonyl)piperazin-1-yl)-3-(5-(trifluoromethyl)-1,3,4-thiadiazol-2-yl)imidazo[1,5-a]pyridine-6-sulfonamide]: 3.8 nM and 539 nM.
In the same order, the values of `CC1(NS(=O)(=O)c2cc(N3CCN(C(=O)[C@H]4CCN4)CC3)c3cnc(-c4nnc(C(F)(F)F)s4)n3c2)CC1` [Example 286, (R)-8-(4-(azetidine-2-carbonyl)piperazin-1-yl)-N-(1-methylcyclopropyl)-3-(5-(trifluoromethyl)-1,3,4-thiadiazol-2-yl)imidazo[1,5-a]pyridine-6-sulfonamide] are 3.98 nM and 235 nM.
Turning to `COC1(C(=O)N2CCN(c3cc(S(=O)(=O)NC4(C#N)CC4)cn4c(-c5nnc(C(F)F)s5)ncc34)CC2)CNC1` [Example 289, N-(1-cyanocyclopropyl)-3-(5-(difluoromethyl)-1,3,4-thiadiazol-2-yl)-8-(4-(3-methoxyazetidine-3-carbonyl)piperazin-1-yl)imidazo[1,5-a]pyridine-6-sulfonamide], the figures for the concentration for half-maximal inhibition (IC50) at PARG and in the experiment on HCC1806 were 1.51 nM and 6150 nM, respectively.
In the same order, the values of `CO[C@H]1C[C@H](C(=O)N2CCN(c3cc(S(=O)(=O)NC4(C)CC4)cn4c(-c5nnc(C(F)(F)F)s5)ncc34)CC2)C1` [Example 290, 8-(4-((1r,3r)-3-methoxycyclobutane-1-carbonyl)piperazin-1-yl)-N-(1-methylcyclopropyl)-3-(5-(trifluoromethyl)-1,3,4-thiadiazol-2-yl)imidazo[1,5-a]pyridine-6-sulfonamide] are 14.5 nM and 151 nM.
The matching figures for `CC1(NS(=O)(=O)c2cc(N3CCN(C(=O)C4(O)CC4)CC3)c3cnc(-c4nnc(C(F)(F)F)s4)n3c2)CC1` [Example 291, 8-(4-(1-hydroxycyclopropane-1-carbonyl)piperazin-1-yl)-N-(1-methylcyclopropyl)-3-(5-(trifluoromethyl)-1,3,4-thiadiazol-2-yl)imidazo[1,5-a]pyridine-6-sulfonamide]: 9.55 nM and 65 nM.
In the same order, the values of `CC1(NS(=O)(=O)c2cc(N3CCN(C(=O)C4CCOCC4)CC3)c3cnc(-c4nnc(C(F)(F)F)s4)n3c2)CC1` [Example 292, N-(1-methylcyclopropyl)-8-(4-(tetrahydro-2H-pyran-4-carbonyl)piperazin-1-yl)-3-(5-(trifluoromethyl)-1,3,4-thiadiazol-2-yl)imidazo[1,5-a]pyridine-6-sulfonamide] are 4.57 nM and 40 nM.
On to `CC1(NS(=O)(=O)c2cc(N3CCN(C(=O)C4CCOC4)CC3)c3cnc(-c4nnc(C(F)(F)F)s4)n3c2)CC1` (centres unmarked) [Example 293, N-(1-methylcyclopropyl)-8-(4-(tetrahydrofuran-3-carbonyl)piperazin-1-yl)-3-(5-(trifluoromethyl)-1,3,4-thiadiazol-2-yl)imidazo[1,5-a]pyridine-6-sulfonamide], for which the IC50 at PARG was determined as 9.12 nM; in the experiment on HCC1806 it was 97 nM.
